Results published in publication PMC11228983, “Rapid Protein–Ligand Affinity Determination by Photoinduced Hyperpolarized NMR” (Journal of the American Chemical Society, 2024).
One block for each molecule: values may come before it. Residues, ends and D or L forms follow the SMILES beside them.

Key:
[1] = target: T1, PDZ2 domain of human tyrosine phosphatase 1E (hPTP1E) (Homo sapiens, UniProt Q12923); test: CIDNP-KD ligand titration (photo-CIDNP hyperpolarized NMR); type: binding
T1 construct: the constructs used for the PDZ2 domain of human tyrosine phosphatase 1E; polyhistidine (N); made in house; host or cells: Escherichia coli BL21 (DE3)
T1 sequence (Q12923 1368-1452 limits assumed): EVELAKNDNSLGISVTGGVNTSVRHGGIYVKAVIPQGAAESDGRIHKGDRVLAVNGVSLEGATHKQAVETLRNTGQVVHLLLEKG
Text: For both STD-NMR and CIDNP-KD, there is an initial buildup of the signal at the start of the irradiation. However, the mechanisms underlying it and, thus, the kinetics of the signal buildup are different between the techniques. In STD-NMR, the saturation of L starts to build up as soon as the irradiation of the protein begins because preformed PL complexes can be immediately saturated. However, in CIDNP-KD, the preformed PL complexes are not CIDNP-active. Therefore, a free L must first be hyperpolarized and then bind to P before any signal reduction is observable. Therefore, we will use the AF(ti) corresponding to the steady state in contrast to STD-NMR, where one needs to measure the initial growth of the amplification factor to account for the ligand rebinding effects, which are significant at low ligand-to-protein ratios;[7] there is no need for an initial amplification factor in CIDNP-KD. During the photo-CIDNP process, only 0.1–1% of the ligand becomes hyperpolarized such that even at low ligand-to-protein ratios, the rebinding of L* is not a significant factor. Therefore, one needs to only assess the time to reach a steady-state amplification factor AFss, whose value is measured at a series of ligand concentrations, and then fit eq 5 to determine the proportionality factor α and the dissociation constant KD (Figure 1D,E) [drawing 5] 5 Affinities are obtained with the CIDNP-KD method as follows. The ligand of interest and the photosensitizer are prepared as titration series in the presence and absence of the target protein (Figure 1A) and measured with the Cryolight setup (Figure 1B,[23]), which allows the automatization with an autosampler. The photo-CIDNP signal builds up within 2 s (Figure 1C). It allows us to measure the irradiation time-dependent photo-CIDNP buildup of the ligand NMR signal in the presence and absence of protein in under a minute per sample (Figure S1A). These signal intensities are converted into AF(ti) with eq 4 (Figure S1B), giving an individual titration data point in the corresponding ligand titration curve (Figure S1C). The experiment is repeated at different ligand concentrations to build the titration curve fitted using eq 5, yielding the KD (Figure 1E,F). The entire measurement of all the photo-CIDNP spectra of 7 titration points (14 measurements) takes about 7 min in measurement time, plus the time to exchange the samples with the autosampler (Figure 1D).
Figure 2 presents the CIDNP-KD titration curves for each peptide with 20 μM PDZ2 in (A) and 10 μM PDZ2 in (B to D). The curves were obtained using the workflow described in the introduction for each proton of tryptophan that has sufficient photo-CIDNP signal enhancement and signal reduction upon binding (Figure S2).
Figure 2 Affinity determination of different peptides binding to the hPDZ2 domain by CIDNP-KD within a few minutes. Ligand titration of (A) WSAV, (B) WVSAV, (C) WQVSAV, and (D) WEQVSAV against the human tyrosine phosphatase PDZ2 domain (20 μM for WSAV, 10 μM for others) as described in Figures 1 and S1. The plots contain the titration curves for all protons of the tryptophan residue that undergo signal enhancement through photo-CIDNP and display sufficient quenching upon protein binding. The individual data points are measured with single-scan experiments with laser irradiation durations where t > tss: (A) 1500 ms, (B) 2000 ms, (C) 2000 ms, and (D) 2000 ms.
Expression and purification were carried out as in previously reported procedures. In short, expression in Escherichia coli cells (BL21 (DE3)) and purification via Ni-NTA chromatography as the constructs used for the PDZ2 domain of human tyrosine phosphatase 1E and human PIN1 both contained N-terminal polyhistidine tags. Both protein constructs were measured in an NMR buffer consisting of 50 mM NaCl, 20 mM KPO4, and 10% D2O at pH 6.8. For the control [^1H, ^15N]-HSQC experiments, the PDZ2 domain was expressed in ^15N-enriched minimal medium.[34],[43] […]

[2] = target: T1, PDZ2 domain of human tyrosine phosphatase 1E (hPTP1E); test: 2D [1H,15N]-HSQC chemical shift perturbation titration; type: binding; settings: 30 μM 15N PDZ2, pH 6.8, 298 K
Procedure: We compared the affinities of the peptides obtained via CIDNP-KD with the state-of-the-art 2D [^1H, ^15N]-HSQC titration experiments measured with 30 μM PDZ2 (Figure S3).
Expression and purification were carried out as in previously reported procedures. In short, expression in Escherichia coli cells (BL21 (DE3)) and purification via Ni-NTA chromatography as the constructs used for the PDZ2 domain of human tyrosine phosphatase 1E and human PIN1 both contained N-terminal polyhistidine tags. Both protein constructs were measured in an NMR buffer consisting of 50 mM NaCl, 20 mM KPO4, and 10% D2O at pH 6.8. For the control [^1H, ^15N]-HSQC experiments, the PDZ2 domain was expressed in ^15N-enriched minimal medium.[34],[43]
All photo-CIDNP and STD-NMR experiments were recorded at 298 K on a Bruker Avance III HD 600 MHz spectrometer equipped with a cryoprobe. The [^15N, ^1H] – HSQC titration experiments of the PDZ2 domain were performed also at 298 K on another Bruker Avance IIII HD 600 MHz spectrometer equipped with a cryoprobe and SampleJet.
Peak picking was performed with the maximal peak picking tool of Mnova software. Plotting, fitting, and data analysis was done in RStudio with the workflow described above. The [^15N, ^1H]-HSQC reference affinities were analyzed with CCPNMR3.1.[62] The backbone assignment was taken from BMRB 34688.
Fig. S3: 2D [15N, 1H]-HSQC titration of peptides to hPDZ2 domain. The 2D [ 15N, 1H]-
HSQC spectra of the titration series in presence of 30 µM hPDZ2 domain and the
corresponding observed chemical shift difference of A74 plotted versus the peptide
(1 picture or pasted object on this page, not shown here)

WVSAV [3] = target: T2, WVSAV; test: CIDNP-KD NMR (Hβ)
T2 chain: WVSAV

WEQVSAV [4] = target: T3, WEQVSAV; test: CIDNP-KD NMR (Hβ)
T3 chain: WEQVSAV

WQVSAV [5] = target: T4, WQVSAV; test: CIDNP-KD NMR (Hβ)
T4 chain: WQVSAV

WVSAV [6] = target: T2, WVSAV; test: CIDNP-KD NMR (H2)
WEQVSAV [7] = target: T3, WEQVSAV; test: CIDNP-KD NMR (H2)
WQVSAV [8] = target: T4, WQVSAV; test: CIDNP-KD NMR (H2)
WVSAV [9] = target: T2, WVSAV; test: CIDNP-KD NMR (H4)
WQVSAV [10] = target: T4, WQVSAV; test: CIDNP-KD NMR (H4)
WEQVSAV [11] = target: T3, WEQVSAV; test: CIDNP-KD NMR (H6)
ENEQVSAV (RA-GEF2) [12] = target: T5, ENEQVSAV (RA-GEF2) (Homo sapiens); test: competition CIDNP-KD NMR (H4)
T5 chain: ENEQVSAV

ENEQVSAV (RA-GEF2) [13] = target: T5, ENEQVSAV (RA-GEF2); test: competition CIDNP-KD NMR (Hβ)
QVSAV (RA-GEF2) [14] = target: T6, QVSAV (RA-GEF2) (Homo sapiens); test: competition CIDNP-KD NMR (Hβ)
T6 chain: QVSAV

ENEQVSAV (RA-GEF2) [15] = target: T5, ENEQVSAV (RA-GEF2); test: [1H,15N]-HSQC titration (A74)
WVSAV [16] = target: T2, WVSAV; test: [1H,15N]-HSQC titration (A74)
WEQVSAV [17] = target: T3, WEQVSAV; test: [1H,15N]-HSQC titration (A74)
WQVSAV [18] = target: T4, WQVSAV; test: [1H,15N]-HSQC titration (A74)
QVSAV (RA-GEF2) [19] = target: T6, QVSAV (RA-GEF2); test: [1H,15N]-HSQC titration (A74)
[20] = range over Hβ/H2/H4/H6 fits, read-out: CIDNP-KD affinity, range over the observed tryptophan protons
[21] = tryptophan H2 signal, 20 μM PDZ2 for WSAV, 10 μM for others, pH 6.8, 298 K, H2 overlaps H6 for WVSAV and WQVSAV, read-out: CIDNP-KD, H2
[22] = tryptophan H4 signal, 20 μM PDZ2 for WSAV, 10 μM for others, pH 6.8, 298 K, read-out: CIDNP-KD, H4
[23] = tryptophan H6 signal, 20 μM PDZ2 for WSAV, 10 μM for others, pH 6.8, 298 K, read-out: CIDNP-KD, H6
[24] = tryptophan Hβ signal, 20 μM PDZ2 for WSAV, 10 μM for others, 25 μM fluorescein, 450 nm, 50 mM NaCl, 20 mM KPO4, 10% D2O, pH 6.8, 298 K, single-scan, steady state, fit ± error, read-out: CIDNP-KD, Hβ
[25] = 15N–1H moiety of A74, read-out: [1H,15N]-HSQC–CSP KD, NH of A74
[26] = range over residues, read-out: [1H,15N]-HSQC–CSP KD range of all residues showing chemical shift perturbation

- Kd [1, 20]: 55 to 82 µM
- Kd [1, 21]: 63 ± 28 µM
- Kd [1, 22]: 63 ± 16 µM
- Kd [1, 23]: 55 ± 17 µM
- Kd [1, 24]: 82 ± 33 µM
- Kd [2, 25]: 16 ± 5 µM
- Kd [2, 26]: 10 to 70 µM
Molecule: CC(C)[C@H](NC(=O)[C@H](C)NC(=O)[C@H](CO)NC(=O)[C@@H](NC(=O)[C@H](CCC(N)=O)NC(=O)[C@H](CCC(=O)O)NC(=O)[C@@H](N)Cc1c[nH]c2ccccc12)C(C)C)C(=O)O [WEQVSAV] (H-WEQVSAV-OH)

- Kd [1, 20]: 19 to 200 µM
- Kd [1, 21]: 74 ± 14 µM
- Kd [1, 22]: 230 ± 30 µM
- Kd [1, 24]: 27 ± 16 µM
- Kd [2, 25]: 68 ± 11 µM
- Kd [2, 26]: 20 to 280 µM
Molecule: CC(C)[C@H](NC(=O)[C@H](C)NC(=O)[C@H](CO)NC(=O)[C@@H](NC(=O)[C@H](CCC(N)=O)NC(=O)[C@@H](N)Cc1c[nH]c2ccccc12)C(C)C)C(=O)O [WQVSAV] (H-WQVSAV-OH)

- Kd [1, 20]: 3100 to 3300 µM
- Kd [1, 21]: 3300 ± 2300 µM
- Kd [1, 22]: 3100 ± 1500 µM
- Kd [1, 23]: 3100 ± 3200 µM
- Kd [2, 25]: 1320 ± 160 µM
- Kd [2, 26]: 200 to 4000 µM
Molecule: CC(C)[C@H](NC(=O)[C@H](C)NC(=O)[C@H](CO)NC(=O)[C@@H](N)Cc1c[nH]c2ccccc12)C(=O)O [WSAV] (H-WSAV-OH)

- Kd [1, 20]: 80 to 330 µM
- Kd [1, 21]: 80 ± 60 µM
- Kd [1, 22]: 330 ± 80 µM
- Kd [1, 24]: 170 ± 40 µM
- Kd [2, 25]: 108 ± 10 µM
- Kd [2, 26]: 50 to 400 µM
Molecule: CC(C)[C@H](NC(=O)[C@H](C)NC(=O)[C@H](CO)NC(=O)[C@@H](NC(=O)[C@@H](N)Cc1c[nH]c2ccccc12)C(C)C)C(=O)O [WVSAV] (H-WVSAV-OH)

- Kd (WVSAV [3]): 170 µM
- Kd (WEQVSAV [4]): 82 µM
- Kd (WQVSAV [5]): 27 µM
- Kd (WVSAV [6]): 80 µM
- Kd (WEQVSAV [7]): 63 µM
- Kd (WQVSAV [8]): 74 µM
- Kd (WVSAV [9]): 330 µM
- Kd (WQVSAV [10]): 230 µM
- Kd (WEQVSAV [11]): 55 µM
- Kd (ENEQVSAV (RA-GEF2) [12]): 91 µM
- Kd (ENEQVSAV (RA-GEF2) [13]): 35 µM
- Kd (QVSAV (RA-GEF2) [14]): 580 µM
- Kd (ENEQVSAV (RA-GEF2) [15]): 17 µM
- Kd (WVSAV [16]): 108 µM
- Kd (WEQVSAV [17]): 16 µM
- Kd (WQVSAV [18]): 68 µM
- Kd (QVSAV (RA-GEF2) [19]): 155 µM
B1: PDZ2 domain of human tyrosine phosphatase 1E (hPTP1E) PDZ2 (protein)
chain: DIFEVELAKNDNSLGISVTGGVNTSVRHGGIYVKAVIPQGAAESDGRIHKGDRVLAVNGVSLEGATHKQAVETLRNTGQVVHLLLEKGQSP
